From ChEMBL document CHEMBL5550215, “Discovery of Novel Imidazo[1,2-a]pyridine-Based HDAC6 Inhibitors as an Anticarcinogen with a Cardioprotective Effect” (J Med Chem, 2024)
pIC50: −log10 of the molar value. Calls of active or inactive are those of the source. The rule behind the calls is not given here.

Assays:
MKN-45 = test: Antiproliferative activity against human MKN-45 cells assessed as inhibition of cell growth by MTT assay
[1] = Half life in male Sprague-Dawley rat at 7 mg/kg,iv measured upto 8 hrs by UPLC-MS/MS analysis; format: ADME, organism-based; conditions: in vivo
MGC-803 [2] = test: Induction of apoptosis in human MGC-803 cells assessed as increase in bax expression by Western blot analysis; format: functional, cell-based; conditions: dose <= 2.0 µM
[3] = AUClast in male Sprague-Dawley rat at 7 mg/kg,po measured upto 8 hrs by UPLC-MS/MS analysis; format: ADME, organism-based; conditions: in vivo
Mus musculus [4] = test: Cardioprotective activity against myocardial ischemia/reperfusion induced C57BL/6J mouse model assessed as reduction in IL-18 expression at 2.5 to 10 mg/kg; format: functional, organism-based; conditions: dose 2.5-10 mg/kg
SGC-7901 = test: Antiproliferative activity against human SGC-7901 cells assessed as inhibition of cell growth by MTT assay
H9c2 [5] = test: Cardioprotective activity in H2O2 induced myocardial injury in rat H9c2 cells assessed as downregulation of IL-1 beta expression; format: functional, cell-based; conditions: dose <= 8.0 µM
[6] = AUC (0 to infinity) in male Sprague-Dawley rat at 7 mg/kg,iv measured upto 8 hrs by UPLC-MS/MS analysis; format: ADME, organism-based; conditions: in vivo
[7] = Cmax in male Sprague-Dawley rat at 7 mg/kg,po measured upto 8 hrs by UPLC-MS/MS analysis; format: ADME, organism-based; conditions: in vivo
MGC-803 [8] = test: Induction of apoptosis in human MGC-803 cells assessed as viable cells at 2 uM measured after 48 hrs by Annexin V-EGFP and PI staining based flow cytometry analysis (reference value: 92.3%); format: functional; conditions: read-out: Activity
MGC-803 [9] = test: Induction of apoptosis in human MGC-803 cells assessed as necrotic cells at 0.5 uM measured after 48 hrs by Annexin V-EGFP and PI staining based flow cytometry analysis (reference value: 3.90%); format: functional
Mus musculus [10] = test: Cardioprotective activity against myocardial ischemia/reperfusion induced C57BL/6J mouse model assessed as effect on infarct size of mouse heart at 2.5 to 10 mg/kg by TTC staining based analysis; format: functional, organism-based; conditions: dose 2.5-10 mg/kg
[11] = Toxicity in C57BL/6 mouse assessed as appearance of inflammatory cell infiltration at 25 to 50 mg/kg, ip by H and E staining based analysis; format: organism-based; conditions: in vivo, dose 25-50 mg/kg
[12] = Observed apparent volume of distribution in male Sprague-Dawley rat at 7 mg/kg,po measured upto 8 hrs by UPLC-MS/MS analysis; format: ADME, organism-based; conditions: in vivo
H9c2 [13] = test: Cardioprotective activity in H2O2 induced myocardial injury in rat H9c2 cells assessed as appearance of defined nuclear boundaries at 2 to 8 uM; format: functional, cell-based; conditions: dose 2-8 µM
Mus musculus [14] = test: Cardioprotective activity against myocardial ischemia/reperfusion induced C57BL/6J mouse model assessed as reduction in ST-segment elevation at 2.5 to 10 mg/kg; format: functional, organism-based; conditions: dose 2.5-10 mg/kg
MGC-803 [15] = test: Induction of apoptosis in human MGC-803 cells assessed as late apoptotic cells at 1 uM measured after 48 hrs by Annexin V-EGFP and PI staining based flow cytometry analysis (reference value: 3.16%); format: functional
[16] = Tmax in male Sprague-Dawley rat at 7 mg/kg,iv measured upto 8 hrs by UPLC-MS/MS analysis; format: ADME, organism-based; conditions: in vivo
[17] = Toxicity in C57BL/6 mouse assessed as lesions in myocardial tissue at 25 to 50 mg/kg, ip by H and E staining based analysis; format: organism-based; conditions: in vivo, dose 25-50 mg/kg
H9c2 [18] = test: Cardioprotective activity against H2O2 induced myocardial damage in rat H9c2 cells harbouring Ad.HDAC6 assessed as reversal of IL-18 expression at 8 uM; format: functional, cell-based
MGC-803 [19] = test: Induction of apoptosis in human MGC-803 cells assessed as necrotic cells at 2 uM measured after 48 hrs by Annexin V-EGFP and PI staining based flow cytometry analysis (reference value: 3.90%); format: functional
MGC-803 [20] = test: Antitumor activity against human MGC-803 cells xenografted in […] mouse model assessed as suppression of tumor mass at 25 to 50 mg/kg, ip measured upto 21 days with continuous administration for 5 days followed by two days break; format: functional, organism-based; conditions: dose 25-50 mg/kg, time <= 21.0 day
HCT-116 = test: Antiproliferative activity against human HCT-116 cells assessed as inhibition of cell growth by MTT assay
MGC-803 [21] = test: Antitumor activity against human MGC-803 cells xenografted in […] mouse model assessed as suppression of tumor volume at 25 to 50 mg/kg, ip measured upto 21 days with continuous administration for 5 days followed by two days break; format: functional, organism-based; conditions: dose 25-50 mg/kg, time <= 21.0 day

O=C(NO)c1ccc(CNC(=O)c2cc(-c3ccc(F)cc3)cn3ccnc23)cc1
pIC50 (MKN-45): 5.13
half-life [1]: 2.19 h
Activity (MGC-803 [2]): Dose-Dependent Effect
AUC(0-t) at 8 h [3]: 54.2 ng·h/mL
Activity (Mus musculus [4]): Active
pIC50 (SGC-7901): 5.08
Activity (H9c2 [5]): Dose-Dependent Effect
AUC(0-inf) [6]: 868 ng·h/mL
Cmax [7]: 27.5 ng/mL
viability at 2 µM (MGC-803 [8]): 70.1%
Activity (MGC-803 [9]): 5.97%
Activity (Mus musculus [10]): inactive
Activity [11]: Non-Toxic
Vz [12]: 492.21671 L/kg
Activity (H9c2 [13]): Active
Activity (Mus musculus [14]): Active
Activity (MGC-803 [15]): 17.6%
Tmax [16]: 5 min
Activity [17]: Non-Toxic
Activity (H9c2 [18]): Active
Activity (MGC-803 [19]): 4.83%
Activity (MGC-803 [20]): Active
pIC50 (HCT-116): < 5.00
Activity (MGC-803 [21]): Active
